# Test results from patent publication US20260285850A1, “SUBSTITUTED OXAZOLIDINONES AND IMIDAZOLINONES AS HERBICIDES” (FMC CORPORATION, priority 2023, published 2026).
# Experiments:
# Type in all cases: in vivo
# [1] = tested on: barnyardgrass (Echinochloa crus-galli); assay: Test A preemergence soil spray, visual injury rating 0-100; settings: 10 days, 0 = no effect, 100 = complete control
# In short: (§1)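 Plants were grown in a loam soil-sand blend and treated with test chemical in a non-phytotoxic solvent mixture containing surfactant, either sprayed on soil preemergence or applied postemergence to 2-10 cm plants. After 10 days in a greenhouse, injury was scored visually against untreated controls, 0 meaning no effect and 100 complete control.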
# [2] = tested on: blackgrass (Alopecurus myosuroides); assay: as above; settings: 10 days, 0 = no effect, 100 = complete control
# In short: as §1
# [3] = tested on: corn (Zea mays); assay: as above; settings: 10 days, 0 = no effect, 100 = complete control
# In short: as §1
# [4] = tested on: green foxtail (Setaria viridis); assay: as above; settings: 10 days, 0 = no effect, 100 = complete control
# In short: as §1
# [5] = tested on: kochia (Bassia scoparia); assay: as above; settings: 10 days, 0 = no effect, 100 = complete control
# In short: as §1
# [6] = tested on: oat, wild (wild oat, Avena fatua); assay: as above; settings: 10 days, 0 = no effect, 100 = complete control
# In short: as §1
# [7] = tested on: palmer (palmer amaranth, palmer pigweed, Amaranthus palmeri); assay: as above; settings: 10 days, 0 = no effect, 100 = complete control
# In short: as §1
# [8] = tested on: ragweed (common ragweed, Ambrosia artemisiifolia); assay: as above; settings: 10 days, 0 = no effect, 100 = complete control
# In short: as §1
# [9] = tested on: soybean (Glycine max); assay: as above; settings: 10 days, 0 = no effect, 100 = complete control
# In short: as §1
# [10] = tested on: wheat (Triticum aestivum); assay: as above; settings: 10 days, 0 = no effect, 100 = complete control
# In short: as §1
# [11] = tested on: barnyardgrass (Echinochloa crus-galli); assay: Test A postemergence application, visual injury rating 0-100; settings: 10 days
# In short: as §1
# [12] = tested on: blackgrass (Alopecurus myosuroides); assay: as above; settings: 10 days
# In short: as §1
# [13] = tested on: corn (Zea mays); assay: as above; settings: 10 days
# In short: as §1
# [14] = tested on: galium (catchweed bedstraw, Galium aparine); assay: as above; settings: 10 days
# In short: as §1
# [15] = tested on: green foxtail (Setaria viridis); assay: as above; settings: 10 days
# In short: as §1
# [16] = tested on: horseweed (Erigeron canadensis); assay: as above; settings: 10 days
# In short: as §1
# [17] = tested on: kochia (Bassia scoparia); assay: as above; settings: 10 days
# In short: as §1
# [18] = tested on: oat, wild (wild oat, Avena fatua); assay: as above; settings: 10 days
# In short: as §1
# [19] = tested on: palmer (palmer amaranth, palmer pigweed, Amaranthus palmeri); assay: as above; settings: 10 days
# In short: as §1
# [20] = tested on: ragweed (common ragweed, Ambrosia artemisiifolia); assay: as above; settings: 10 days
# In short: as §1
# [21] = tested on: ryegrass, Italian (italian ryegrass, Lolium multiflorum); assay: as above; settings: 10 days
# In short: as §1
# [22] = tested on: soybean (Glycine max); assay: as above; settings: 10 days
# In short: as §1
# [23] = tested on: wheat (Triticum aestivum); assay: as above; settings: 10 days
# In short: as §1
# [24] = tested on: barnyardgrass (Echinochloa crusgalli); assay: Test B flooded paddy test, visual plant response rating 0-100; settings: 250 g ai/ha, Flood, applied to paddy water, evaluated after 13 days
# In short: (§2)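 Compounds applied to standing paddy water (3 cm above soil, maintained for the test duration) on 2-leaf-stage plants; visual rating vs controls at 13 days, greenhouse.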
# [25] = tested on: ducksalad (Heteranthera limosa); assay: as above; settings: 250 g ai/ha, Flood, applied to paddy water, evaluated after 13 days
# In short: as §2
# [26] = tested on: rice (Oryza sativa); assay: as above; settings: 250 g ai/ha, Flood, applied to paddy water, evaluated after 13 days
# In short: as §2
# [27] = tested on: sedge, umbrella (small-flower umbrella sedge, Cyperus difformis); assay: as above; settings: 250 g ai/ha, Flood, applied to paddy water, evaluated after 13 days
# In short: as §2
# [28] = 31 g ai/ha, postemergence, 0 = no effect, 100 = complete control
# [29] = Postemergence, 125 g ai/ha, 0 is no effect, 100 is complete control
smiles,measurement,setting,value
CC1(C(=O)NC2CCC(C(=O)O)C2)CN(c2cc(F)cc(Cl)c2)C(=O)O1 (centres unmarked) [Compound 7],Barnyardgrass plant response rating (0-100),[1]; 31 g ai/ha,0
same,Barnyardgrass plant response rating (0 to 100 scale),[1]; 125 g ai/ha,90
same,Blackgrass plant response rating (0-100),[2]; 31 g ai/ha,20
same,Blackgrass plant response rating (0 to 100 scale),[2]; 125 g ai/ha,70
same,Corn plant response rating (0-100),[3]; 31 g ai/ha,0
same,Corn plant response rating (0 to 100 scale),[3]; 125 g ai/ha,80
same,"Foxtail, Green plant response rating (0-100)",[4]; 31 g ai/ha,20
same,"Foxtail, Green plant response rating (0 to 100 scale)",[4]; 125 g ai/ha,100
same,Kochia plant response rating (0-100),[5]; 31 g ai/ha,0
same,Kochia plant response rating (0 to 100 scale),[5]; 125 g ai/ha,80
same,"Oat, Wild plant response rating (0-100)",[6]; 31 g ai/ha,20
same,"Oat, Wild plant response rating (0 to 100 scale)",[6]; 125 g ai/ha,70
same,"Amaranth, Palmer plant response rating (0-100)",[7]; 31 g ai/ha,0
same,"Amaranth, Palmer plant response rating (0 to 100 scale)",[7]; 125 g ai/ha,90
same,Ragweed plant response rating (0-100),[8]; 31 g ai/ha,0
same,Ragweed plant response rating (0 to 100 scale),[8]; 125 g ai/ha,0
same,Soybean plant response rating (0-100),[9]; 31 g ai/ha,20
same,Soybean plant response rating (0 to 100 scale),[9]; 125 g ai/ha,60
same,Wheat plant response rating (0-100),[10]; 31 g ai/ha,90
same,Wheat plant response rating (0 to 100 scale),[10]; 125 g ai/ha,90
same,Barnyardgrass plant response rating (0-100),[11]; [28],100
same,Barnyardgrass plant response rating (0 to 100 scale),[11]; [29],100
same,Blackgrass plant response rating (0-100),[12]; [28],60
same,Blackgrass plant response rating (0 to 100 scale),[12]; [29],70
same,Corn plant response rating (0-100),[13]; [28],90
same,Corn plant response rating (0 to 100 scale),[13]; [29],100
same,Galium plant response rating (0-100),[14]; [28],80
same,Galium plant response rating (0 to 100 scale),[14]; [29],80
same,"Foxtail, Green plant response rating (0-100)",[15]; [28],50
same,"Foxtail, Green plant response rating (0 to 100 scale)",[15]; [29],90
same,Horseweed plant response rating (0-100),[16]; [28],0
same,Horseweed plant response rating (0 to 100 scale),[16]; [29],40
same,Kochia plant response rating (0-100),[17]; [28],70
same,Kochia plant response rating (0 to 100 scale),[17]; [29],80
same,"Oat, Wild plant response rating (0-100)",[18]; [28],90
same,"Oat, Wild plant response rating (0 to 100 scale)",[18]; [29],100
same,"Amaranth, Palmer plant response rating (0-100)",[19]; [28],50
same,"Amaranth, Palmer / Pigweed, Palmer plant response rating (0 to 100 scale)",[19]; [29],80
same,Ragweed plant response rating (0-100),[20]; [28],0
same,Ragweed plant response rating (0 to 100 scale),[20]; [29],20
same,"Ryegrass, Italian plant response rating (0-100)",[21]; [28],80
same,"Ryegrass, Italian plant response rating (0 to 100 scale)",[21]; [29],90
same,Soybean plant response rating (0-100),[22]; [28],50
same,Soybean plant response rating (0 to 100 scale),[22]; [29],60
same,Wheat plant response rating (0-100),[23]; [28],90
same,Wheat plant response rating (0 to 100 scale),[23]; [29],90
same,"Plant response rating, Barnyardgrass (0 to 100 scale, 0 is no effect and 100 is complete control)",[24],60
same,"Plant response rating, Ducksalad (0 to 100 scale, 0 is no effect and 100 is complete control)",[25],60
same,"Plant response rating, Rice (0 to 100 scale, 0 is no effect and 100 is complete control)",[26],25
same,"Plant response rating, Sedge, Umbrella (0 to 100 scale, 0 is no effect and 100 is complete control)",[27],90
